Experimental data published in ChEMBL document CHEMBL1146449, “Trypanocidal flavonoids from Trixis vauthieri” (1997).

Tests used:
Assay type in all cases: functional
Parameters in all cases: scale not given: the % may be the effect or the level left
[1] = tested on: Trypanosoma cruzi; experiment: Trypanocidal activity against Trypanosoma cruzi Y strain trypomastigotes infected in Swiss albino mouse blood assessed as reduction of parasitemia at 31 ug/mL after 24 hrs relative to control
[2] = tested on: Trypanosoma cruzi; experiment: Trypanocidal activity against Trypanosoma cruzi Y strain trypomastigotes infected in Swiss albino mouse blood assessed as reduction of parasitemia at 500 ug/mL after 24 hrs relative to control
[3] = tested on: Trypanosoma cruzi; experiment: Trypanocidal activity against Trypanosoma cruzi Y strain trypomastigotes infected in Swiss albino mouse blood assessed as reduction of parasitemia at 1000 ug/mL after 24 hrs relative to control

Structure (SMILES)	Activity [2]	Activity [3]	also measured
CN(C)c1ccc(C(=C2C=CC(=[N+](C)C)C=C2)c2ccc(N(C)C)cc2)cc1.[Cl-] [GENTIAN VIOLET]			Activity [1]: 50%
COc1cc2oc(-c3ccc(O)cc3)c(OC)c(=O)c2c(O)c1OC [PENDULETIN]	86%		
COc1c(OC)c(O)c2c(=O)c(OC)c(-c3ccc(O)cc3)oc2c1OC [CALYCOPTERIN]		0%	
COc1cc(O)c2c(c1)O[C@H](c1ccc(O)cc1)CC2=O [SAKURANETIN]	100%		
COc1cc(O)c2c(c1)OC(c1ccc(O)cc1)C(O)C2=O (stereo not given)		0%	
